Assay results from EP0960886B1, “Peptide T and related peptides in the treatment of inflammation, including multiple sclerosis” (priority 1992, dated 1993).
Values joined by “and” are separate entries in the source; they are usually repeats but may differ in a detail not shown here. Equal values may be shown once.

Tests used:
PBMC [1] = test: Antigen (measles, mumps and rubella vaccine) induced PBMC proliferation (Example 11); type: cell-based, human; conditions: without Peptide T 3.26 ± 0.55
Procedure: PBMC were incubated as described in relation to Table III in Example 9 in the presence of live, attenuated measles, mumps and rubella vaccine (Merck Sharp and Dohme, Canada) at a final dilution of 1:20. Peptide T was added either on day 1 of incubation or on a daily basis. Results are expressed as a proliferation index ± standard deviation.

[2] = tested on: mouse foetal hippocampal neurons; conditions: cited from earlier work
IL-1 = test: Serum IL-1 by RIA in patients with HIV disease; type: in vivo, human; conditions: one line per patient with HIV disease
Text: However, neopterin levels were elevated prior to Peptide T administration whereas serum IL-1 levels were normal.

p56^lck = test: lck specific tyrosine kinase assay (autophosphorylation) in PBL blasts (Example 10); type: cell-based; set-up: key: ++++: highly active; +: slightly active; conditions: Unstimulated PBL blasts; Peptide T 10^-9 M for 2 hours; without P.T. +++
Procedure: PBL (peripheral blood leukocyte) blasts were prepared by incubating PBMC at 37°C with PHA (10 µg/ml) in RPMI + 10% FBS for 48 hours followed by addition of interleukin-2 and incubation for a subsequent 96 hours. Cells were washed free of IL-2 and incubated for 24 hours then washed free of FBS and incubated for 24 hours. PBL blasts remained either […] or were. treated with OKT4A (anti-CD4) at 10 µg/ml for 1 hour followed by rat anti-mouse Ig at 5 µg/ml for 5 minutes to enhance lck activity. PBL blasts were pretreated with Peptide T (10^-9 M) for 2 hours, then washed extensively before anti-CD4 stimulation. Following immunoprecipitation with anti-lck-Protein A conjugates and incubation (37°C, 10 minutes) with ^32P-ATP, p56^lck autophosphorylation was determined by autoradiography and used as a measure of p56^lck activity.
Peptide T will inhibit the PHA-induced activation and anti-CD4 dependent enhancement of p56^lck activity as we have determined (Table V) by an lck specific tyrosine kinase assay. p56^lck is a CD4 associated tyrosine kinase involved in T cell activation and transmembrane signalling (Janeway C.A. Ann. Rev. Immunol. 10 645-674 (1992)). […]

PBMC [3] = test: Mixed lymphocyte reaction (Example 13); type: cell-based, human
[4] = tested on: human monocyte chemotaxis; conditions: cited from earlier work
human neutrophils = test: TNF-induced neutrophil chemiluminescence (lucigenin-dependent); type: cell-based; conditions: Figure 10
Procedure: Neutrophils. Neutrophils were isolated from whole blood from healthy blood donors. Separation was achieved by the rapid-single-step method of centrifugation of whole blood on FICOLL-HYPAQUE™. These were >99% viable and usually >98% pure.
Peptides and TNF. TNF was a recombinant product produced in E. coli. Peptide T and analogue 505 (D-Ser-Ser-D-Thr-Thr-D-Thr-Thr-Tyr-D-Thr) were resuspended in Hank's Balanced Salt Solution (HBSS).
To 100µl of 500-1000U/ml of TNF was added 10µl of peptide and after 5 min 100µl of 1x10^7 neutrophils/ml was added. The cells further incubated at 37°C/20 min and then tested for chemiluminescence activity. In some cases an agonist such as fMLP (10^-7M) was added. Chemiluminescence was measured in a luminometer (LKB). The results for Peptide T are presented in Figure 12 as peak rate of CL release. Lucigenin-dependent chemiluminescence was measured: this represents superoxide measurement. In another set of experiments the effects of analogue 505 on the LPS-induced neutrophil chemiluminescence were examined. In this case the LPS was essentially substituted for the TNF. The concentration of LPS was 0.005µg/ml.

[5] = tested on: Human umbilical vein endothelial cells; test: TNFα-induced tissue factor expression on endothelial cells, ELISA (Example 17); type: cell-based; conditions: TNFα 3 µg/ml for 4 hours; increasing concentrations of Peptide T
Procedure: Methodology Human umbilical vein endothelial cells were cultured essentially by the method of Bevilacqua et al. Proc. Natl. Acad. Sci. USA 83 4533-4537 (1986). Cell cultures were treated with TNFα at 3 µg/ml for 4 hours at 37° in the presence or absence of Peptide T. Tissue factor expression was measured by an ELISA, following absorbence at 450nm.

## C[C@@H](N)C(=O)N[C@@H](CO)C(=O)N[C@H](C(=O)N[C@H](C(=O)N[C@H](C(=O)N[C@@H](CC(N)=O)C(=O)N[C@@H](Cc1ccc(O)cc1)C(=O)N[C@H](C(N)=O)[C@@H](C)O)[C@@H](C)O)[C@@H](C)O)[C@@H](C)O [Peptide T, D-Ala-Ser-Thr-Thr-Thr-Asn-Tyr-Thr-NH2]
PBMC [1]; Peptide T added Daily, 10^-7 Mol/L
  Proliferation Index ± S.D.: 1.83 ± 0.36
PBMC [1]; Peptide T added Daily, 10^-9 Mol/L
  Proliferation Index ± S.D.: 0.98 ± 0.16
PBMC [1]; Peptide T added Daily, 10^-11 Mol/L
  Proliferation Index ± S.D.: 1.56 ± 0.14
PBMC [1]; Peptide T added Daily, 10^-13 Mol/L
  Proliferation Index ± S.D.: 1.38 ± 0.51
PBMC [1]; Peptide T added Daily, 10^-15 Mol/L
  Proliferation Index ± S.D.: 1.56 ± 0.61
PBMC [1]; Peptide T added Daily, 10^-17 Mol/L
  Proliferation Index ± S.D.: 1.60 ± 0.60
PBMC [1]; Peptide T added Daily, 10^-19 Mol/L
  Proliferation Index ± S.D.: 2.27 ± 1.09
PBMC [1]; Peptide T added Day 1, 10^-7 Mol/L
  Proliferation Index ± S.D.: 4.02 ± 0.78
PBMC [1]; Peptide T added Day 1, 10^-9 Mol/L
  Proliferation Index ± S.D.: 1.91 ± 0.46
PBMC [1]; Peptide T added Day 1, 10^-11 Mol/L
  Proliferation Index ± S.D.: 5.35 ± 1.46
PBMC [1]; Peptide T added Day 1, 10^-13 Mol/L
  Proliferation Index ± S.D.: 5.46 ± 1.37
PBMC [1]; Peptide T added Day 1, 10^-15 Mol/L
  Proliferation Index ± S.D.: 5.56 ± 0.60
PBMC [1]; Peptide T added Day 1, 10^-17 Mol/L
  Proliferation Index ± S.D.: 3.99 ± 0.18
PBMC [1]; Peptide T added Day 1, 10^-19 Mol/L
  Proliferation Index ± S.D.: 6.15 ± 2.59
[2]; CSF at 1:100,000 dilution, 44-49% killing without peptide
  neurotoxicity of CSF from a patient with AIDS dementia: inhibited
[2]; cultures of mouse foetal hippocampal neurons
  gp120-induced neurotoxicity: completely, antagonised
IL-1; post-Peptide T
  [IL-1]: 3.8 ± 0.12 fmol/100µl and 4.2 ± 0.07 fmol/100µl and 4.6 ± 0.11 fmol/100µl and 4.7 ± 0.05 fmol/100µl and 4.2 ± 0.02 fmol/100µl and 4.2 ± 0.26 fmol/100µl and 4.33 ± 0.003 fmol/100µl and 4.6 ± 0.02 fmol/100µl
IL-1; pre-Peptide T (baseline)
  [IL-1]: 3.5 ± 0.14 fmol/100µl and 5.23 ± 0.17 fmol/100µl and 4.1 ± 0.01 fmol/100µl and 4.1 ± 0.03 fmol/100µl and 3.7 ± 0.03 fmol/100µl and 4.2 ± 0.14 fmol/100µl and 3.9 ± 0.13 fmol/100µl and 4.35 ± 0.06 fmol/100µl
p56^lck
  activity of p56^lck: +
PBMC [3]
  growth of lymphocytes in a mixed lymphocyte reaction: did not affect
[4]
  agonist activity on human monocyte chemotaxis: potent agonists
Human neutrophils
  activation of human neutrophils by TNF: inhibits activation of human neutrophils by TNF
[5]
  tissue factor expression: progressively reduce tissue factor expression
